The values below come from patent US7728028B2, “Substituted imidazoline compounds” (Gruenenthal GmbH, priority 2005, dated 2010).

Molecules are shown by their SMILES.

T1 sequence (P35372 whole entry): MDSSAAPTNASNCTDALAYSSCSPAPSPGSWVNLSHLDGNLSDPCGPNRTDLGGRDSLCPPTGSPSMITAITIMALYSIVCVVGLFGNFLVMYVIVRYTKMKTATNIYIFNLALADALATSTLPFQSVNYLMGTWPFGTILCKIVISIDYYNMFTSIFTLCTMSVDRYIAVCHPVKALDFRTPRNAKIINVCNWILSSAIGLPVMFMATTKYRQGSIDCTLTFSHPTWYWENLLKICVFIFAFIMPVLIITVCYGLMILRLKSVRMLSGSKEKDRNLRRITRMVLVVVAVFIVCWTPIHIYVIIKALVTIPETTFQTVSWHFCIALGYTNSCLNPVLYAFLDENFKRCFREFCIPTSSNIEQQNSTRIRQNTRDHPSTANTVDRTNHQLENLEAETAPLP

This assay addresses T1, human μ-opiate receptor (Homo sapiens, UniProt P35372).
T1 construct: purchased PerkinElmer Life Sciences, Zaventem, Belgium RB-HOM; host or cells: CHO-K1 cells (recombinant expression; membrane preparation)
Nature of the assay: Affinity for the human μ-opiate receptor ([3H]-naloxone displacement, SPA). Conditions: Table 2, Examples 11-161; test substance 1 μmole/l; inhibition of specific [3H]-naloxone binding; CHO-K1 membranes; read-out: μ-Opioid receptor, % inhibition [1 μM]. As for the experimental part: Investigations on the Efficacy of the Compounds According to the Invention Method for Determining the Affinity for the Human μ-Opiate Receptor
The receptor affinity for the human μ-opiate receptor is determined in a homogeneous batch in microtiter plates. For this purpose dilution series of the substances to be tested are incubated with a receptor membrane preparation (15-40 μg protein/250 μl incubation batch) of CHO-K1 cells, which express the human μ-opiate receptor (RB-HOM receptor membrane preparation from PerkinElmer Life Sciences, Zaventem, Belgium), in the presence of 1 nmole/l of the radioactive ligand [^3H]-naloxone (NET719, PerkinElmer Life Sciences company, Zaventem, Belgium) and 1 mg WGA-SPA beads (wheat germ agglutinin SPA beads from Amersham/Pharmacia, Freiburg, Germany) in a total volume of 250 μl for 90 minutes at room temperature. 50 mmole/l of Tris-HCl supplemented with 0.06% bovine serum albumin is used as incubation buffer. In order to determine the non-specific binding, 100 μmole/l of naloxone is additionally added. After the end of the 90 minutes' incubation time the microtiter plates are centrifuged for 20 minutes at 1000 g and the radioactivity is measured in a beta counter (Microbeta-Trilux, PerkinElmer Wallac, Freiburg, Germany). The percentage displacement of the radioactive ligand from its binding to the human μ-opiate receptor at a concentration of the test substances of 1 μmole/l is determined and is given as percentage inhibition of the specific binding.
Take `CCCCN1C=NC(Cc2ccc(Cl)cc2)(C(=O)OC)C1C1CCC(C(c2ccc(Cl)cc2)N(C)C)CC1` (centres unmarked) [Example 32, 1-butyl-4-(4-chlorobenzyl)-5-{4-[(4-chlorophenyl)-dimethylaminomethyl]-cyclohexyl}-4,5-dihydro-1H-imidazole-4-carboxylic acid methyl ester]: the inhibition at 1 µM was determined as 74%.

`CCCCN1C=NC(CCCC)(C(=O)OC)C1C1CCC(C(c2ccc(Cl)cc2)N(C)C)CC1` (centres unmarked) [Example 33, 1,4-dibutyl-5-{4-[(4-chlorophenyl)-dimethylaminomethyl]-cyclohexyl}-4,5-dihydro-1H-imidazole-4-carboxylic acid methyl ester]: the inhibition at 1 µM stood at 85%. The same measure for `CCCCN1C=NC(CC(C)C)(C(=O)OC)C1CC1CCC(C(c2ccc(Cl)cc2)N(C)C)CC1` (centres unmarked) [Example 34, 1-butyl-5-{4-[(4-chlorophenyl)-dimethylaminomethyl]-cyclohexylmethyl}-4-isobutyl-4,5-dihydro-1H-imidazole-4-carboxylic acid methyl ester]: 98%. To `CCCCN1C=NC(Cc2ccc(Cl)cc2)(C(=O)OC)C1CC1CCC(C(c2ccc(Cl)cc2)N(C)C)CC1` (centres unmarked) [Example 35, 1-butyl-4-(4-chlorobenzyl)-5-{4-[(4-chlorophenyl)-dimethylaminomethyl]-cyclohexylmethyl}-4,5-dihydro-1H-imidazole-4-carboxylic acid methyl ester] belongs 92%. To `CCCCN1C=NC(CCCC)(C(=O)OC)C1CC1CCC(C(c2ccc(Cl)cc2)N(C)C)CC1` (centres unmarked) [Example 36, 1,4-dibutyl-5-{4-[(4-chlorophenyl)-dimethylaminomethyl]-cyclohexylmethyl}-4,5-dihydro-1H-imidazole-4-carboxylic acid methyl ester] belongs 97%; to `COC(=O)C1(CC(C)C)N=CN(CCc2ccccc2)C1C1CCC(C(c2cccc(F)c2)N(C)C)CC1` (centres unmarked) [Example 37, 5-{4-[dimethylamino-(3-fluorophenyl)-methyl]-cyclohexyl}-4-isobutyl-1-phenethyl-4,5-dihydro-1H-imidazole-4-carboxylic acid methyl ester], 93%. Take `COC(=O)C1(Cc2ccc(Cl)cc2)N=CN(CCc2ccccc2)C1C1CCC(C(c2cccc(F)c2)N(C)C)CC1` (centres unmarked) [Example 38, 4-(4-chlorobenzyl)-5-{4-[dimethylamino-(3-fluorophenyl)-methyl]-cyclohexyl}-1-phenethyl-4,5-dihydro-1H-imidazole-4-carboxylic acid methyl ester]: the inhibition at 1 µM stood at 84%. To `CCCCC1(C(=O)OC)N=CN(CCc2ccccc2)C1C1CCC(C(c2cccc(F)c2)N(C)C)CC1` (centres unmarked) [Example 39, 4-butyl-5-{4-[dimethylamino-(3-fluorophenyl)-methyl]-cyclohexyl}-1-phenethyl-4,5-dihydro-1H-imidazole-4-carboxylic acid methyl ester] belongs 88%; to `COC(=O)C1(CC(C)C)N=CN(CCc2ccccc2)C1C1CCC(C(c2ccc(Cl)cc2)N(C)C)CC1` (centres unmarked) [Example 40, 5-{4-[(4-chlorophenyl)-dimethylaminomethyl]-cyclohexyl}-4-isobutyl-1-phenethyl-4,5-dihydro-1H-imidazole-4-carboxylic acid methyl ester], 95%.

On to `COC(=O)C1(Cc2ccc(Cl)cc2)N=CN(CCc2ccccc2)C1C1CCC(C(c2ccc(Cl)cc2)N(C)C)CC1` (centres unmarked) [Example 41, 4-(4-chlorobenzyl)-5-{4-[(4-chlorophenyl)-dimethylaminomethyl]-cyclohexyl}-1-phenethyl-4,5-dihydro-1H-imidazole-4-carboxylic acid methyl ester], for which the inhibition at 1 µM came to 79%. To `CCCCC1(C(=O)OC)N=CN(CCc2ccccc2)C1C1CCC(C(c2ccc(Cl)cc2)N(C)C)CC1` (centres unmarked) [Example 42, 4-butyl-5-{4-[(4-chlorophenyl)-dimethylaminomethyl]-cyclohexyl}-1-phenethyl-4,5-dihydro-1H-imidazole-4-carboxylic acid methyl ester] belongs 94%. With `COC(=O)C1(CC(C)C)N=CN(CCc2ccccc2)C1CC1CCC(C(c2ccc(Cl)cc2)N(C)C)CC1` (centres unmarked) [Example 43, 5-{4-[(4-chlorophenyl)-dimethylaminomethyl]-cyclohexylmethy}-4-isobutyl-1-phenethyl-4,5-dihydro-1H-imidazole-4-carboxylic acid methyl ester], the inhibition at 1 µM is 97%. Take `COC(=O)C1(Cc2ccc(Cl)cc2)N=CN(CCc2ccccc2)C1CC1CCC(C(c2ccc(Cl)cc2)N(C)C)CC1` (centres unmarked) [Example 44, 4-(4-chlorobenzyl)-5-{4-[(4-chlorophenyl)-dimethylaminomethyl]-cyclohexylmethyl}-1-phenethyl-4,5-dihydro-1H-imidazole-4-carboxylic acid methyl ester]: the inhibition at 1 µM stood at 91%.

For `CCCCC1(C(=O)OC)N=CN(CCc2ccccc2)C1CC1CCC(C(c2ccc(Cl)cc2)N(C)C)CC1` (centres unmarked) [Example 45, 4-butyl-5-{4-[(4-chlorophenyl)-dimethylaminomethyl]-cyclohexylmethyl}-1-phenethyl-4,5-dihydro-1H-imidazole-4-carboxylic acid methyl ester], the inhibition at 1 µM was 97%. The same measure for `COC(=O)C1(CC(C)C)N=CN(Cc2ccccc2)C1C1CCC(C(c2cccc(F)c2)N(C)C)CC1` (centres unmarked) [Example 46, 1-benzyl-5-{4-[dimethylamino-(3-fluorophenyl)-methyl]-cyclohexyl}-4-isobutyl-4,5-dihydro-1H-imidazole-4-carboxylic acid methyl ester]: 92%; for `COC(=O)C1(Cc2ccc(Cl)cc2)N=CN(Cc2ccccc2)C1C1CCC(C(c2cccc(F)c2)N(C)C)CC1` (centres unmarked) [Example 47, 1-benzyl-4-(4-chlorobenzyl)-5-{4-[dimethylamino-(3-fluorophenyl)-methyl]-cyclohexyl}-4,5-dihydro-1H-imidazole-4-carboxylic acid methyl ester]: 74%.

As for `COC(=O)C1(CC(C)C)N=CN(Cc2ccccc2)C1C1CCC(C(c2ccc(Cl)cc2)N(C)C)CC1` (centres unmarked) [Example 48, 1-benzyl-5-{4-[(4-chlorophenyl)-dimethylaminomethyl]-cyclohexyl}-4-isobutyl-4,5-dihydro-1H-imidazole-4-carboxylic acid methyl ester], the inhibition at 1 µM is 93%. To `COC(=O)C1(Cc2ccc(Cl)cc2)N=CN(Cc2ccccc2)C1C1CCC(C(c2ccc(Cl)cc2)N(C)C)CC1` (centres unmarked) [Example 49, 1-benzyl-4-(4-chlorobenzyl)-5-{4-[(4-chlorophenyl)-dimethylaminomethyl]-cyclohexyl}-4,5-dihydro-1H-imidazole-4-carboxylic acid methyl ester] belongs 84%. As to `COC(=O)C1(CC(C)C)N=CN(Cc2ccccc2)C1CC1CCC(C(c2ccc(Cl)cc2)N(C)C)CC1` (centres unmarked) [Example 50, 1-benzyl-5-{4-[(4-chlorophenyl)-dimethylaminomethyl]-cyclohexylmethyl}-4-isobutyl-4,5-dihydro-1H-imidazole-4-carboxylic acid methyl ester], the inhibition at 1 µM was 94%. With `COC(=O)CCC1(C(=O)OC)N=CN(C2CCCCC2)C1C1CCC(C(c2ccc(Cl)cc2)N(C)C)CC1` (centres unmarked) [Example 51, 5-{4-[(4-chlorophenyl)-dimethylaminomethyl]-cyclohexyl}-1-cyclohexyl-4-(2-methoxycarbonylethyl)-4,5-dihydro-1H-imidazole-4-carboxylic acid methyl ester], the inhibition at 1 µM came to 96%.

What is called inhibition is the share of the control response that was lost under treatment.
